Data set [1] can be described thus: Fraction of drug unbound to brain proteins. The data set is classed as in vitro ADME, Mouse. The following applies: read-out: Fu (b) % (fraction of drug unbound to brain proteins).
In data set [2] the target is T1, CXCR4 (Jurkat cells expressing CXCR4) (Homo sapiens, UniProt P61073).
T1 construct: Jurkat cells expressing CXCR4; endogenous in cells; host or cells: Jurkat
Briefly: Chemokine (CXCL12-AF647) binding inhibition assay. The following applies: CXCL12-AF647 25 ng/mL, read-out: IC50 CXCL-12 binding Jurkat. The essentials: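 Cells in HBSS, 20 mM HEPES, 0.2% BSA, pH 7.4, preincubated 15 min at room temperature with compound, then 25 ng/mL CXCL12-AF647 for 30 min. After washing and paraformaldehyde fixation, bound ligand read by flow cytometry; percent inhibition calculated from MFI relative to unlabeled and ligand-only controls.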

SMILES strings stand for the structures. Where two headings read alike, the source gives them in different places.

T1 sequence (P61073 whole entry): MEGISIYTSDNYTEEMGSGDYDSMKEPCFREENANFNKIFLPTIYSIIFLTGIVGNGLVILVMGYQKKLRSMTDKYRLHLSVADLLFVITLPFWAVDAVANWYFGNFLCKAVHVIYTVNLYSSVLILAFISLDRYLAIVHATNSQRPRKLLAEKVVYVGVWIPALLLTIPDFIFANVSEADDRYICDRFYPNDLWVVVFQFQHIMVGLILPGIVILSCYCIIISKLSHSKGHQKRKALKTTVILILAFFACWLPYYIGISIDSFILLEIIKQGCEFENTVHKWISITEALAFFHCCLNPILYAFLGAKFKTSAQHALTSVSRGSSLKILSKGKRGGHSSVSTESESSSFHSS

Broadly, the fraction unbound is the share of the substance not bound to proteins or other matrix. Broadly, the IC50 is the concentration that inhibits the measured activity by half. With `CN1CCN(c2c(CN3CCCC3c3ccccn3)nc3ccc(F)cn23)CC1` (stereo not drawn) [Compound I-63], the fraction unbound in data set [1] (Table 9, mouse) came to 0.053. For the same compound, the IC50 in data set [2] was in the range of 0.01 to 100 nM.
For `CN1CCN(c2c(CN3CCCC3c3nccs3)nc3ccccn23)CC1` (stereo not drawn) [Compound I-70] the same measures were 0.207 and 0.01 to 100 nM.
For `CN1CCN(c2cccc3[nH]c(CN4CCCC4c4ncccc4Cl)nc23)CC1` (stereo not drawn) [Compound I-26] the same measures were 0.076 and 0.01 to 100 nM.
With `Cc1cccnc1C1CCCN1Cc1nc2cccc(N3CCN(C4CC4)CC3)c2[nH]1` (stereo not drawn) [Compound I-31], the fraction unbound in data set [1] (Table 10, mouse) was determined as 0.008. For the same compound, in data set [2], the IC50 was 0.01 to 100 nM.
For `Cc1cccnc1C1CCCN1Cc1cn2c(N3CCN(C)C4(CC4)C3)cccc2n1` (stereo not drawn) [Compound I-29] the same measures were 0.063 and 100 to 1000 nM.
For `CN1CCN(c2c(CN3CCCC3c3ccccn3)nc3ccccn23)CC1` (stereo not drawn) [Compound I-41], the fraction unbound in data set [1] (Table 9, mouse) amounted to 0.069. For the same compound, the IC50 in data set [2] is 0.01 to 100 nM.

The values above are taken from US11332470B2, “CXCR4 inhibitors and uses thereof” (X4 Pharmaceuticals, Inc., priority 2016, dated 2022).
